The test system of assay [1] is musculocutaneous flap. The experiment in a line: musculocutaneous flap skin survival after DNP. The note with it: after induction of heat shock proteins by DNP (FIG. 23). The format is in vivo. From the text: (§1) This method of DNP induced preconditioning could be used to decrease intimal thickening and restenosis after angioplasty, improve ischemia/reperfusion injury in organ and tissue transplantation, and improve surgical outcome of procedures that require temporary or prolonged occlusion of arterial blood flow.

In assay [2] the test system is arterial catheter balloon injury. The experiment in a line: arterial catheter balloon injury after DNP pretreatment. The format is in vivo, Sprague-Dawley rats. The note with it: rats pretreated with DNP induced hyperthermia (FIG. 21).
Description: as §1

Assay [3] relates to metastatic, hormone-refractory prostate carcinoma. In words: DNP with methylene blue, prostate carcinoma (Example 9). Format: in vivo, human. Here is the method:
Pretreatment protocol: the patient was transfused with 2 units of packed red blood cells 48 hours prior to undergoing treatment. Intravenous fluids (Lactated Ringer's solution) were administered at a rate of 100 cc/hour. The patient was dressed in comfortable cotton clothing and placed in an air-conditioned room. Equipment for monitoring heart rate and rhythm, temperature and oxygen consumption was utilized as outlined in Example 1. An oral breathing tube was used to conduct TEEM VO2 measurements. Oxygen supplementation and “crash cart” was available at bedside.
Treatment protocol: baseline VO2 measurements for 8 minutes established an average VO2 of 250 cc/minute. DNP, at a dose of 2 mg/kg, was infused intravenously over a 2 minute period. Repeat VO2 at 20 minutes was stabilized at 340-360 cc/minute. An additional 1 mg/kg DNP infusion was administered, and 15 minutes thereafter the VO2 increased and stabilized at 420 cc/minute. Ten minutes thereafter, an infusion of methylene blue, 2 mg/kg (dissolved in a […] pyrogen-free isotonic saline solution-35 ml) was administered over 20 minutes.
By hour 3, VO2 declined to the 360-380 cc/minute range. An additional 1 mg/kg dose of DNP was infused over a 2 minute period. […] Rectal probe temperature increased to a maximum of 1.3° C. over baseline. […] The protocol was repeated every other day for a total of 15 treatments (30 days). Therapy was discontinued for 2 weeks and the cycle was again repeated for an additional 30 days, treatment being administered every other day.

For assay [4], the system named is Kaposi's sarcoma and nontumorous oral mucosa tissues. In words: microcalorimetric heat output of biopsy specimens. Further details: species or system human. The note with it: biopsy specimens in 30 uM DNP. From the text: Laboratory studies: EKG, serum electrolytes, renal and liver function tests were normal. Hematocrit was 35.5%, WBC was 9,900 with 81% neutrophils, 4 bands, 11 lymphocytes and 4 monocytes. Platelets were 314,000/mm^3. Viral load was 400,000 copies/ml (Amplicor HIV Monitor test, Roche). A CD4^+ T cell count was quantified by flow cytometry at 250/mm^3. They were antibody positive for hepatitis C. […] Karnofsky score was greater than 70. Normal and tumor tissue biopsies, 3 to 6 mm in diameter, from the oral cavity and anus were obtained. The tissues were equally divided, weighed and placed in 4° C. Ringers lactate solution. Histologically confirmed normal and KS tissues were then subjected to microcalorimetric measurements in a thermal activity monitor (ThermoMetric, Jarfalla, Sweden). Recorded heat output (μW/min) was 8.2-8.5 times greater for the KS sarcoma lesions than nontumorous oral mucosa tissues. Repeat measurements with biopsies specimens in 30 uM DNP increased heat production in tumorous tissues 20.5 times more than nontumorous specimens.

Assay [5] deals with dimethyl benzo-dithionaphthene derived ascites fibrosarcoma. The experiment in a line: DNP induced hyperthermia with thermosensitive liposomes, ascites fibrosarcoma (Example 5). The format is in vivo, Swiss albino mice. Here is the method: The anticancer drug dacarbazine [5-(3,3′-dimethyl-1-triazino) imidazole-4-carboxamide] was encapsulated in these heat-sensitive liposomes at a concentration of 3 mg/ml. The in vivo efficacy of the thermosensitive, liposome encapsulated dacarbazine was tested on Swiss albino mice transplanted with a dimethyl benzo-dithionaphthene derived ascites fibrosarcoma subjected to DNP induced hyperthermia.
Male, 10-12-week-old, Swiss albino mice were injected with 3×10^6 viable fibrosarcoma cells into the peritoneum. After 15 days the animals were divided into various treatment and control groups receiving intraperitoneal injections of free dacarbazine, DNP alone, DNP+empty liposomes and DNP+liposome encapsulated dacarbazine. DNP induced hyperthermia was recorded with neonatal rectal and 22 ga. hypodermic YSI probes. Temperatures were recorded 30 minutes after a 20 mg/kg intraperitoneal dose of DNP. DNP was administered every day for a total of 5 doses. In all cases the hypodermic, intraperitoneal temperatures were 1° C. higher than the rectal.

Consider `O=[N+]([O-])c1ccc(O)c([N+](=O)[O-])c1` [DNP, 2,4-dinitrophenol], for which, in assay [1], the “musculocutaneous flap skin survival” value was “improved musculocutaneous flap skin survival”. The “proliferative arterial catheter balloon injury” value in assay [2] is given as “limitation of proliferative arterial catheter balloon injury”. Moreover, the bone pain entry in assay [3] (6th day following therapy, DNP with methylene blue) is “decrease in their low back, hip and other areas of bone pain”. In assay [3] (6 weeks after treatment), this compound showed a PSA values of 30 ng/mL. The “tumor necrotic on prostatic biopsy” value in assay [3] (10 weeks after initiation of treatment) is listed as 95%. Moreover, in assay [3] (by 2 weeks), the analgesic use result is “off all narcotic (morphine) analgesics”. Besides, in assay [3] (day 8), the acid phosphatase result is given as “remained unchanged” and the “increase in PSA level” value is reported as “approximately 120%”. The PSA level in assay [3] (day 8, pretreatment 58 ng/ml) was found to be 125 ng/mL. The repeat prostate biopsy entry in assay [3] (end of month 4, oral DNP 250 mg twice a day after IV therapy) is listed as “very few intact acini or viable acinar cells”. The weight gained in assay [3] (three months after initiation of therapy) worked out at 8.2 kg. The “heat production in tumorous tissues versus nontumorous specimens” value in assay [4] stood at 20.5 times. The “hypodermic, intraperitoneal temperature higher than the rectal” value in assay [5] (30 minutes after 20 mg/kg intraperitoneal DNP) was determined as 1 °C. For the same compound, in assay [5] (FIG. 20, DNP 20 mg/kg ip every day, 5 doses), the “survival curves in comparison to controls” value is reported as “significantly improved”. In addition, the animals remained alive in assay [5] (sham treated animals all died by 60) was not below 100 days.
